In brackets after ≈: the same amount, converted by molar mass. Like-named read-outs stand apart in the source and are kept apart here.

Data set [1] relates to C. elegans wild-type N2. Kind of data set: Microscopic scoring (score 1-5) of worm populations prior to the Chitinase assay, L1 exposed 4 days. Format: in vivo, Caenorhabditis elegans. As to conditions: 50 μM; score 1 (dead/arrested L1) to 5 (healthy). An excerpt: Dead or mostly immobile worms, arrested at the L1 stage, received a score of 1. Populations with severely delayed development were scored as 2. More developmentally advanced, but still obviously delayed worms were given the score of 3. Adult worms that produce a noticeably lower number of progeny received a score of 4. Healthy worms that reproduce normally (i.e., hundreds of eggs and larvae are present) were scored as 5 (see Figure C for representative images). In a typical, correctly prepared experiment, vehicle-treated populations should receive a score of 5, while worms treated with ivermectin (positive control) should receive a score of 1.
(§1) After exposing L1 larvae to the compounds for 4 days, we observed the populations under a microscope and measured the Chitinase activity. The larvae produce the enzyme while hatching, and its activity is indicative of the reproductive capacity of the worms. Populations that fail to reproduce due to acute or reproductive toxicity or developmental abnormalities are detected.

Data set [2] relates to C. elegans N2 wild-type. Description: Chitinase assay (reproductive capacity). Format: in vivo, Caenorhabditis elegans. As for the experimental part:
(§2) The effect of compounds on C. elegans was evaluated using the Chitinase assay as we described previously.
as §1

In data set [3] the test system is Arabidopsis thaliana Col-0. Kind of data set: Germination rate and phytotoxicity. Format: in vivo. The note with it: for average fraction of germinated seeds: 5 DPS; for main root length / plant weight: 10 DPS. The procedure:
Wild-type A. thaliana (Col-0 ecotype) seeds were sterilized with 70% EtOH with 0.1% Tween-20 solution (2 × 1 mL) for 10 min, rinsed with 96% EtOH (1 × 1 mL) for 10 min, and kept in the fridge (4 °C in the dark). Seeds were sown on a sterile 1/2 MS medium supplemented with 0.3% DMSO as a mock and test compounds at 5, 10, 50, and 100 μM concentrations in 0.3% DMSO. Plates were kept in long-day light conditions (22 °C/20 °C, 16 h light/8 h dark, 100 μmol m^–2 s^–1). After 5 days, the germination rate was evaluated. After an additional 5 days, primary root growth was measured with ImageJ software (https://imagej.nih.gov/ij/), and seedlings were weighted.

Data set [4] in a line: Visual inspection of DMSO stock solutions. Format: physicochemical. The note with it: 50 mM in DMSO, stored at −20 °C. As for the experimental part: For bioassays, all compounds were dissolved in dimethyl sulfoxide (DMSO) to prepare 50 mM stock solutions. Stock solutions were stored at −20 °C and diluted in water or the appropriate media for each bioassay to achieve the final concentrations indicated below. Solubility was evaluated by visual inspection of stock solutions (assessing clarity or cloudiness) and by microscopic examination of media to detect potential crystal formation. The final DMSO concentrations in the bioassays were kept at levels that had no detectable impact on test organisms, as determined by comparison with water-treated controls (0.1% for cell cultures, 0.2% for nematodes, and 0.3% for Arabidopsis thaliana Col-0).

Data set [5] deals with Skin fibroblasts (BJ). Description: Resazurin assay, 3-day treatment. Format: cell-based, human. As to conditions: BJ. As for the experimental part:
Skin fibroblasts (BJ) were obtained from the American Type Culture Collection (ATCC, Manassas, VA), while human keratinocytes (HaCaT) were sourced from the German Cancer Research Center in Heidelberg, Germany. Cells were cultured in a standard DMEM medium from Sigma-Aldrich, supplemented with 10% fetal bovine serum, 2 mM glutamine, 100 U/mL penicillin, and 100 μg/mL streptomycin. Cultures were maintained under standard conditions (37 °C, 5% CO2, humidified atmosphere) and subcultured two to three times per week. We assessed the effect of 3-day compound treatments on cell viability using a resazurin reduction assay measuring mitochondrial activity. Approximately 5,000 cells in 80 μL of culture medium were seeded into the wells of a 96-well plate. Twenty-four hours later, 20 μL of 5-fold concentrated test compound solutions was added and tested across three concentrations prepared through 2-fold serial dilutions. The highest final concentration was 40 μM. After 72 h, we added an 11-fold concentrated resazurin solution to the wells, achieving a final concentration of 0.0125 μM. Fluorescence (ex = 570 nm, em = 610 nm) was measured after 3 h of incubation. […]

Data set [6] relates to human keratinocytes (HaCaT). Kind of data set: Resazurin assay, 3-day treatment. Format: cell-based. The procedure: Skin fibroblasts (BJ) were obtained from the American Type Culture Collection (ATCC, Manassas, VA), while human keratinocytes (HaCaT) were sourced from the German Cancer Research Center in Heidelberg, Germany. Cells were cultured in a standard DMEM medium from Sigma-Aldrich, supplemented with 10% fetal bovine serum, 2 mM glutamine, 100 U/mL penicillin, and 100 μg/mL streptomycin. Cultures were maintained under standard conditions (37 °C, 5% CO2, humidified atmosphere) and subcultured two to three times per week. We assessed the effect of 3-day compound treatments on cell viability using a resazurin reduction assay measuring mitochondrial activity. Approximately 5,000 cells in 80 μL of culture medium were seeded into the wells of a 96-well plate. Twenty-four hours later, 20 μL of 5-fold concentrated test compound solutions was added and tested across three concentrations prepared through 2-fold serial dilutions. The highest final concentration was 40 μM. After 72 h, we added an 11-fold concentrated resazurin solution to the wells, achieving a final concentration of 0.0125 μM. Fluorescence (ex = 570 nm, em = 610 nm) was measured after 3 h of incubation.
The disubstituted derivatives i-25 and i-27 were the most toxic in the set, causing around a 50% decrease in viability of HaCaT cells at 40 μM.

Data set [7] concerns Heterodera schachtii second-stage juveniles (J2). Description: Motility on WMicrotracker ONE. Format: in vivo. The procedure: H. schachtii was maintained on mustard (Sinapsis alba cv. Albatros) roots grown in vitro on modified KNOP medium according to the previously published protocols. ,
(§3) The effect of compounds on motility of H. contortus, D. destructor, and H. schachtii was evaluated using the WMicrotracker ONE platform according to previously published protocols. ,
(§4) The instrument evaluates the activity of small animals by counting how many times infrared light microbeams passing through the wells of a microtiter plate are interrupted. In age-unsynchronized populations of D. destructor, we observed reduced motility of worm populations treated with the halogenated derivatives i-19, i-20, and i-21 (Figures A, S2.1A, S2.2A and Table S2.1). […] The decreases in mean activity counts after 72 h of treatment at 100 μM were 85% and 97%, respectively.

Data set [8] concerns age unsynchronized Ditylenchus destructor. Description: Motility on WMicrotracker ONE. Format: in vivo. As for the experimental part: Populations of D. destructor, kindly provided by Central Institute for Supervising and Testing in Agriculture, the Ministry of Agriculture of the Czech Republic, were maintained according to the protocol previously described here.
as §3, §4

The test system of data set [9] is C. elegans CB3474 ben-1(e1880) III. Kind of data set: Chitinase assay (reproductive capacity). As to conditions: Caenorhabditis elegans; mebendazole-resistant strain. Format: in vivo. As for the experimental part: (§5) C. elegans strains used in this study were N2 (wild-type), levamisole-resistant strains ZZ15 (lev-8(x15) X) and […] (lev-1(e211) IV), ivermectin-resistant strain DA1316 (avr-14(ad1305) I; avr-15(vu227) glc-1(pk54) V), mebendazole-resistant strain […] (ben-1(e1880) III), and three strains with mutations in succinate dehydrogenase, RP2699, RP2700, and RP2702. The worms were cultivated on Nematode Growth Medium agar plates seeded with Escherichia coli OP50 in 20 °C according to the standard cultivation protocols. Strains RP2699, RP2700, and RP2702 were generated by Prof. Peter Roy’s group. All other strains and bacteria were purchased from the Caenorhabditis Genetics Center (CGC, Minneapolis, MN).
as §2
(§6) Lastly, strain DA1316 has mutations in three genes encoding subunits of the glutamate-gated chloride channel and is highly resistant to avermectins.

For data set [10], the system named is C. elegans CB211 lev-1(e211) IV. Description: Chitinase assay (reproductive capacity). Format: in vivo. The note with it: Caenorhabditis elegans; levamisole-resistant strain. The procedure:
as §5, §2, §6

The subject of data set [11] is C. elegans ZZ15 lev-8(x15) X. Kind of data set: Chitinase assay (reproductive capacity). Format: in vivo. The note with it: Caenorhabditis elegans; levamisole-resistant strain. As for the experimental part:
as §5, §2, §6

The subject of data set [12] is C. elegans DA1316 avr-14(ad1305) I; avr-15(vu227) glc-1(pk54) V. Kind of data set: Chitinase assay (reproductive capacity). Format: in vivo. The note with it: Caenorhabditis elegans; ivermectin-resistant strain. The procedure:
as §5, §2, §6

Data set [13] deals with Meloidogyne incognita. Set-up: method as in not printed (reference number lost in b5). The note with it: ref not printed (reference number lost in b5); cited from earlier work.
Where [14] appears, read: 10 µM group, initial (prior to the treatment).
Setting [15] is: 50 µM group, initial (prior to the treatment).
[16] abbreviates: 100 µM group, initial (prior to the treatment).

In data set [1], `CCCOc1ccccc1-c1ccc2[nH]ccc2c1` [i-11] had an average score of 1.5.

`CC(C)c1ccc(-c2ccc3[nH]ccc3c2)cc1` [i-17] registered an IC50 in [2] (Caenorhabditis elegans) of 7.6 ± 2.3 µM. Further, the “average fraction of germinated seeds” value turned out to be 0.95 in data set [3] (5 µM), 0.98 in data set [3] (10 µM) and 0.89 in data set [3] (50 µM). For the same compound, the main root length in [3] (5 µM) is listed as 38.83 mm; in data set [3] (10 µM), 37.53 mm; in data set [3] (50 µM), 31.19 mm. Also, the plant weight in data set [3] (5 µM) stood at 35.01 mg; in [3] (10 µM) it was 28.28 mg; in data set [3] (50 µM) it was 26.18 mg. Besides, the “stability of stock solutions” value in data set [4] is reported as “precipitation of stock solutions after a single freeze–thaw cycle”. Besides, the “Average viability (signal intensity relative to control)” value in [5] (10 µM) came to 0.9 ± 0.01; in [5] (20 µM) it was 0.92 ± 0.05; in data set [5] (40 µM), 0.82 ± 0.07; in [6] (10 µM), 0.98 ± 0.01; in data set [6] (20 µM), 0.99 ± 0.01; in data set [6] (40 µM), 0.87 ± 0.04. In addition, the average activity counts in data set [7] (setting [14]) is 178; in data set [7] (10 µM, 48 h), 160; in [7] (10 µM, 72 h) it was 139; in [7] (setting [15]), 181; in [7] (50 µM, 48 h), 158; in [7] (50 µM, 72 h) it was 158. In addition, the average activity counts in data set [7] (setting [16]) is on record as 197; in data set [7] (100 µM, 48 h) it was 158; in [7] (100 µM, 72 h), 122; in data set [8] (setting [14]), 228; in [8] (10 µM, 48 h), 211; in [8] (10 µM, 72 h), 212. Moreover, the average activity counts in data set [8] (setting [15]) is listed as 228; in data set [8] (50 µM, 48 h) it was 223; in [8] (50 µM, 72 h) it was 224; in data set [8] (setting [16]), 245; in data set [8] (100 µM, 48 h) it was 206; in [8] (100 µM, 72 h), 212.

Compound `CCOc1ccccc1-c1ccc2[nH]ccc2c1` [i-8] displayed an average score in data set [1] of 2.5.

In the case of `CCOc1ccc(-c2ccc3[nH]ccc3c2)cc1` [i-10], the average score in data set [1] was 1.8.

As to `CCOc1cccc(-c2ccc3[nH]ccc3c2)c1` [i-9], the IC50 in data set [2] was 9.76 ± 0.93 µM; in [2] (Caenorhabditis elegans) it was less than 10 µM; in data set [9] it was 10.2 ± 0.5 µM; in [10], 9.65 ± 1.82 µM; in data set [11], 9.71 ± 1.34 µM; in data set [12] it was 9.34 ± 2.01 µM. In addition, the “average fraction of germinated seeds” value in data set [3] (5 µM) is given as 0.96; in [3] (10 µM) it was 0.95; in data set [3] (50 µM) it was 0.96. In addition, the main root length in [3] (5 µM) stood at 40.21 mm; in [3] (10 µM), 41.46 mm; in data set [3] (50 µM), 35.05 mm. Further, the plant weight in [3] (5 µM) came to 33.97 mg; in data set [3] (10 µM), 35.69 mg; in data set [3] (50 µM), 31.4 mg. The “Average viability (signal intensity relative to control)” value is given as 0.92 ± 0.03 in [5] (10 µM); 0.97 ± 0.04 in data set [5] (20 µM); 0.94 ± 0.03 in [5] (40 µM); 0.97 ± 0.04 in data set [6] (10 µM); 1.01 ± 0.05 in data set [6] (20 µM); 0.99 ± 0.02 in data set [6] (40 µM). Moreover, the average activity counts in [7] (setting [14]) was 167; in data set [7] (10 µM, 48 h), 161; in [7] (10 µM, 72 h) it was 159; in [7] (setting [15]), 201; in data set [7] (50 µM, 48 h), 207; in [7] (50 µM, 72 h) it was 188. The average activity counts in data set [7] (setting [16]) is 193; in [7] (100 µM, 48 h), 202; in [7] (100 µM, 72 h), 171; in [8] (setting [14]) it was 199; in [8] (10 µM, 48 h), 183; in [8] (10 µM, 72 h), 205. Further, the average activity counts is 200 in [8] (setting [15]); 176 in data set [8] (50 µM, 48 h); 212 in data set [8] (50 µM, 72 h); 228 in data set [8] (setting [16]); 171 in data set [8] (100 µM, 48 h); 181 in [8] (100 µM, 72 h).

`O=C(O)Cc1c[nH]c2ccccc12` [Indole-3-acetic acid]: the LC50 in data set [13] was 117 µg/mL (≈ 668 µM).

The values above are taken from publication PMC12766724, “Synthesis, Anthelmintic Activity, and Mechanism of Action of 5‑Aryl‑1H‑indoles” (Journal of Agricultural and Food Chemistry, 2025).
